Holding throughout (assay type): in vivo, mouse
The test system of data set [1] is transient focal cerebral ischemia (tMCAO) in mice. Nature of the data set: Brain infarct volume and swelling after transient focal cerebral ischemia (tMCAO). To be noted: 24 h reperfusion, i.p.; for hemispheric edema (hemisphere swelling) / infarct volume: normotensive C57BL/6j mice, half dose at 3 h and 8 h reperfusion, BMT 10, STS5 13, STS66 12 mg/kg/day, mean±SD; for infarct volume: male and female combined. The method, then: (§1) FIGS. 1A-1C: Efficacy of NKCC1 inhibitors in reducing ischemic infarction, cerebral edema, and the post-stroke survival in normotensive mice after tMCAO (see Example 3). (1A) Experimental protocol and data collection. Transient middle cerebral artery occlusion (tMCAO) was induced in normal C57/b6 mice. DMSO, BMT (10 mg/kg body weight), STS5 (13 mg/kg) or STS66 (12 mg/kg) was administered via intraperitoneal injection (i.p.) as described in method. (1 B) Representative TTC staining images in normotensive mice at 24 h reperfusion with quantitative analysis of infarct volume. Data are mean±SD, n=6-13 (male, n=3-9; female, n=3-4, *p<0.05). Scale: 5 mm. (1C) Percentage hemisphere swelling at 24 h reperfusion. Data are mean±SD, n=6-13, *p<0.05. (1D) Body weight change during 1-14 days after tMCAO. Data are mean±SD, n=5-9 (male, n=4; female, n=2, *p<0.05). (1E) Survival curve during 1-14 day after tMCAO. Data are mean±SD, n=5-9 (male, n=3-7; female, n=2, *p<0.05).
(§2) Transient focal cerebral ischemia was induced in mice by intraluminal occlusion of the left middle cerebral artery (MCA) for 50 min as described previously (Chen H et al., 2005). Mice were anesthetized with 3% isoflurane in 70%: 30% N2O/O2 until they were unresponsive to the tail pinch test. Animals were then fitted with a nose cone blowing 1.5% isoflurane for anesthesia maintenance. The left common carotid artery was exposed and the occipital artery branches of the external carotid artery were isolated and coagulated. The internal carotid artery was isolated and the extracranial branch was dissected and ligated. A rubber silicon-coated monofilament suture (6-0) was introduced into the internal carotid artery lumen and gently advanced approximately 8-9 mm to block the MCA blood flow for 50 min. The rectal temperature was maintained at 37.0±0.5° C. during surgery through a temperature-controlled heating pad. Achievement of ischemia was confirmed by monitoring regional cerebral blood flow (rCBF) with laser speckle contrast imager (Pericam). For reperfusion, the suture was withdrawn after the MCAO. The incision was closed and the mouse recovered under a heating lamp to maintain the core temperature (36.0-37.0° C.) during the 30-60 min recovery period. After recovery, animals were returned to their cages with free access to food and water.
(§3) Vehicle: DMSO (2 ml/kg body weight/day), the NKCC1 inhibitor bumetanide (BMT, 10 mg/kg body weight/day in DMSO), bumetanide's prodrug STS5 (13 mg/kg body weight/day in DMSO), or the novel NKCC1 inhibitor STS66 according to the invention (12 mg/kg body weight/day in DMSO) was administered via intraperitoneal injection (i.p). The initial half dose of the drugs (BMT, STS5, STS66) was given at 3 h after the onset of reperfusion and the second half dose at 8 h reperfusion in the tMCAO model.
At 24 h post-reperfusion, mice were anesthetized with 5% isoflurane and then decapitated. Coronal brain slices (2 mm thickness) were stained with 1% 2,3,5-triphenyltetrazolium chloridemonohydrate (TTC) for 20-30 min and brain slices were scanned (Begum G et al., 2015). Ischemic lesions were traced in each slice in a blinded manner, and the total volume of infarction was calculated with correction for edema, as described by Swanson et al., 1990 using ImageJ software. Infarct areas were summed across all slices and multiplied by slice thickness to yield total infarct volume (mm^3). Brain swelling was determined with the following formula. For tMCAO: swelling (% contralateral hemispheric volume)=[(ipsilateral hemispheric volume)−(contralateral hemispheric volume)]/(contralateral hemispheric volume)×100, as described before (Guo Q G et al., 2009; Sunghee Cho et al., 2005).

Data set [2] has the same test system. As to the kind of experiment: Body weight and survival 1-14 days after tMCAO. To be noted: for body weight changes: 1-14 days after tMCAO, versus DMSO Veh control; for mortality rate: between 1-14 days post tMCAO, BMT 10, STS5 13, STS66 12 mg/kg/day i.p. The method, then: as §1, §2, §3
The test system is the same in data set [3]. As to the kind of experiment: Neurological function tests (sensorimotor deficits) after tMCAO. The note with it: normotensive mice, 1-14 days monitor and behavior test after stroke. The source says: (§4) FIGS. 2A-2D: Efficacy of NKCC1 inhibitors on improving neurological function in mice after tMCAO (see Example 3). (A) Neurological score, (B) corner test, (C) foot-fault test, and (D)-(E) adhesive tape test during 1-14 day after tMCAO. Data are mean±SD, n=4-9. *p<0.05 for DMSO vs STS66, **p<0.05 for DMSO vs STS5, ***p<0.05 for DMSO vs BMT, #p<0.05 for BMT vs STS66, ###p<0.05 for STS5 vs STS66.
(§5) Transient focal cerebral ischemia was induced in mice by intraluminal occlusion of the left middle cerebral artery (MCA) for 50 min as described previously (Chen H et al., 2005). Mice were anesthetized with 3% isoflurane in 70%: 30% N2O/O2 until they were unresponsive to the tail pinch test. Animals were then fitted with a nose cone blowing 1.5% isoflurane for anesthesia maintenance. The left common carotid artery was exposed and the occipital artery branches of the external carotid artery were isolated and coagulated. […]
Neurological functional deficits in mice were assessed in a blinded manner with the following tests: neurological score, adhesive tape removal test, corner test, cylinder test, and grid walking foot-fault test. These tests are established for identifying and quantifying sensorimotor deficits and postural asymmetries (Bederson J B, et al., 1986; Zhang L, et al., 2002; Schaar K L, et al., 2010).

Data set [4] has the same test system. As to the kind of experiment: Neurological score after tMCAO.
Source text: as §4, §2, §3
Neurological deficit grading system was used to evaluate neurological deficit at 1, 2, 3, 5, 7, 10 and 14 days after tMCAO as described previously (Bederson J B et al,1986).

Data set [5] shares this test system. Nature of the data set: Corner test after tMCAO. The note with it: 1-14 days after tMCAO.
Source text: as §4
as §5, with “coagulated. The internal carotid artery was isolated and the extracranial branch was dissected and ligated.” for “coagulated.”
Neurological functional deficits in mice were determined by the corner test. […]
The numbers of left and right turns of each mouse during 10 trials were recorded, and turning movements that were not part of a rearing movement were not scored (Zhang L, et al., 2002).

The test system is the same in data set [6]. As to the kind of experiment: Adhesive tape removal test after tMCAO. To be noted: days not given (tests on days 1-14); for adhesive tape removal time, last value of the span: end of the span 'x to y'; for adhesive tape removal time, first value of the given span: start of the span 'x to y'.
Source text: as §4, §2, §3
An adhesive tape removal test was used to measure somatosensory deficits. Two pieces of adhesive tape (4 mm×3 mm) were attached to the forepaws in an alternating sequence and with equal pressure by the experimenter before each trial. The removal time is defined as the time at which the animal removes the tape. The trial ended after the adhesive patch was removed or after 2 min had elapsed. Pre-operative training was carried twice per day for three days and were tested on day 1, 2, 3, 5, 7, 10 and 14 days after tMCAO (Bouet V, et al., 2009).

Experimental findings from patent publication US20260132103A1, “Bumetanide Derivatives for the Therapy of Stroke and Other Neurological Diseases/Disorders Involving NKCCs” (University of Pittsburgh - Of the Commonwealth System of …, priority 2018, published 2026) are described below.

As for `CCCCNc1cc(C(=O)O)cc(S(N)(=O)=O)c1Oc1ccccc1` [BMT, 3-(butylamino)-4-phenoxy-5-sulfamoylbenzoic acid, reference compound], in data set [1], the “hemispheric edema (hemisphere swelling)” value is 15.4±5.9% and the infarct volume worked out at 65.2±21.7 mm^3. Besides, in data set [2], the body weight changes entry was “no differences in the body weight changes” and the mortality rate was approximately 16.7%. Further, the sensorimotor deficits entry in data set [3] was “improved all sensorimotor deficits”. For the same molecule, the neurological deficit score in data set [4] (day 5) is reported as 3.8±0.4. For the same molecule, in data set [4] (day 10), the neurological deficit score was found to be 2.5±0.5. Also, the corner test outcome in data set [5] is reported as “exhibited neuroprotective effects”. Further, in data set [6], the “adhesive tape removal time, last value of the span” value worked out at 17.4 ± 7.6 s and the “adhesive tape removal time, first value of the given span” value was found to be 109.4 ± 10.8 s.

Consider `CCCCNc1cc(CNCC(F)(F)F)cc(S(N)(=O)=O)c1Oc1ccccc1` [STS66, 3-(Butylamino)-2-phenoxy-5-[(2,2,2-trifluoroethylamino)methyl]benzenesulfonamide], for which the “infarct volume in female mice” value in data set [1] (female mice only, STS5 13, STS66 12 mg/kg/day) came out at 74.3±9.2 mm^3. Also, in data set [1], the “hemispheric edema (hemisphere swelling)” value amounted to 14.1±6.1% and the infarct volume worked out at 69.7±17.9 mm^3. In data set [2], the body weight changes result was “no differences in the body weight changes” and the mortality rate entry is “none of the STS66-treated mice died”. Further, the sensorimotor deficits result in data set [3] is “improved all sensorimotor deficits”. The molecule also registered a neurological deficit score in data set [4] (day 1 post-reperfusion) of 4.0±0.0. Further, the neurological deficit score in data set [4] (day 14 post-reperfusion) is listed as 1.2±0.4. In data set [5], the corner test outcome is “definite superior effects at every testing day”. In addition, in data set [6], the “adhesive tape removal time, last value of the span” value amounted to 10.3 ± 5.2 s and the “adhesive tape removal time, first value of the given span” value was found to be 29.7 ± 36.0 s.
